Data taken from a melting point compilation (Tetko et al.; mined from patent text by program, amines drawn as free bases though some values may be those of a salt).

SMILES	melting point [°C]
C/C=C/CC(=O)N[C@H]1CC[C@H](CCN2CCN(c3nccc4c3CCO4)CC2)CC1	176
O=C1NCN(c2ccccc2)C12CCN(CC(O)COc1ccc(F)cc1)CC2 (stereo not given)	152 to 154
CCc1cccc(CCC(O)c2ccccc2)c1NC(=O)CC1c2ccccc2Oc2ccccc21 (stereo not given)	192 to 193
CCCS(=O)(=O)Nc1c(C)cc(OC(=O)NC)cc1C	173 to 176
Cc1ccc(-c2ccc3c(c2)C=C(C(=O)Nc2ccc(Cc4ncccc4O)cc2)CCO3)cc1	285 to 288
O=C(c1ccc(-c2cccc3ccccc23)cc1)N1Cc2cccn2Cc2ccccc21	170 to 171
Fc1ccc(-c2ncn(C3CCNCC3)c2-c2ccnc(Oc3ccc4c(c3)OCO4)n2)cc1	131 to 132
CCOC(=O)C1=C(COCC(C)(O)c2ncc[nH]2)NC(C)=C(C(=O)OC)C1c1cccc(Cl)c1Cl (stereo not given)	183
CN(C)c1nc(N(C)C)nc(N(C)Cc2ccc(O)cc2)n1	163 to 164
CSC(C#N)NC(=O)c1cccc(Cl)c1 (stereo not given)	115 to 117
Nc1nc2ccccc2c2c1ncn2CCCCNC(=O)c1cccnc1	189 to 190
O=C(NCc1ncc(C(F)(F)F)cc1Cl)c1c(Cl)nc2c(c1Cl)CCCC2	48 to 50
CCn1c(=O)c2c(nc(/C=C/c3cc(OC)c(O)c(OC)c3)n2C)n(CC)c1=O	226
Cc1c(CO)ncn1CCCNC(C)(C)c1ccc(Cl)cc1	97 to 99
Nc1ncnc2ncn(CCO)c12	132 to 133
CC1Cc2ccccc2C1=NO (stereo not given)	82 to 91
O=C(c1ccccc1F)c1cccc2c1N(C(=O)CBr)CC2	136
NC(=O)C1CCN(c2ccncc2Cl)CC1	210 to 212
COc1ccccc1Oc1c(Cl)nc(-c2cccnn2)nc1NS(=O)(=O)CCc1cccc2ccccc12	192
CCCCCCCCCCCCCCCCCC[PH](=O)C(OCC)OCC (stereo not given)	54 to 58

The next lines start with the values.

melting point [°C]	SMILES
181 to 183	CCN(CC)C(=O)c1ccc2ccccc2c1-c1ccc(C)cc1
107 to 108	FC(F)(F)c1ccc(-c2nnc(-c3cccc(C4OCCO4)c3)o2)cc1
248 to 250	OCc1ccc2oc(-c3ccc(O)cc3)cc2c1
52 to 55	Cc1cccc(C)c1NCC(C)Nc1c(C)cccc1C (stereo not given)
95 to 96	CC(C)COC(=O)Nc1ccc(Br)cc1
157 to 158	COc1ccccc1Nc1cc(-c2c(-c3cccc(C)c3)nc3cccnn23)ccn1
254	CCOc1cc(-c2cc(C(F)F)n3ncc(C(=O)Nc4cccc(S(N)(=O)=O)c4)c3n2)ccc1C(F)(F)F
187 to 188	COc1ccc2c(c1)c(Cc1cc(=O)n(C3CCCCC3)[nH]1)c(C)n2C(=O)c1ccc(Cl)cc1
45 to 50	CCc1cccc(CNC[C@@H](O)[C@H](Cc2cc(F)cc(F)c2)NC(=O)C2CCC(CS(C)(=O)=O)CC2)c1 (stereo not given in full)
105 to 106	OC(=S)CCCc1nn(-c2ccccc2)c2c1CCCC2
163 to 164	N#CCCN1C(=O)C2(OCCCO2)c2ccc(Cl)cc21
256 to 257	Cc1ccc(-n2c(-c3sc(Nc4ccccc4)nc3C)nc3ccccc3c2=O)cc1
65 to 66	Cc1nc(-c2ccccc2)ncc1CBr
140 to 143	CC(C)c1sc(-c2ccccc2)c(-c2ccc(F)cc2)c1CO
110 to 112	N#CCCN(C(N)=O)C1CCCCC1
130 to 134	Nc1ccc(C(c2ccccc2)c2ccccc2)nc1
141 to 142	COC(=O)C(C)(C)Cc1c(SC(C)(C)C)c2cc(OCc3cnccn3)ccc2n1Cc1ccc(Cl)cc1
234 to 236	CNc1nc(-c2ccccc2)c(-c2ccc(=O)n(C(C)C)n2)s1
187 to 190	Nc1ccc2c(c1)C(=O)C1(CCOC1=O)S2 (stereo not given)
143 to 144	CC(=O)OC1CSC(Oc2cc(-c3ccncc3)cnc2F)C(OC(C)=O)C1OC(C)=O (stereo not given)
